# Like-named read-outs stand apart in the source and are kept apart here.
# Key:
# [1] = test system: pigweed (AMARE, Amaranthus retroflexus); assay: Greenhouse postemergence trial, % visual injury; assay type: in vivo
# [2] = test system: winter rape (BRSNW, Brassica napus); assay: Greenhouse postemergence trial, % visual injury; assay type: in vivo; settings: 20-22 d
# [3] = test system: velvetleaf (Abutilon theophrasti, ABUTH); assay: Greenhouse postemergence trial, % visual injury; assay type: in vivo
# [4] = test system: nutsedge (Cyperus esculentus, CYPES); assay: Greenhouse postemergence trial, % visual injury; assay type: in vivo
# [5] = test system: sunflower (Helianthus annus, HELAN); assay: Greenhouse postemergence trial, % visual injury; assay type: in vivo; settings: dichlorprop-P 400 g ae/ha
# [6] = test system: common chickweed (Stellaria media, STEME); assay: Greenhouse postemergence trial, % visual injury; assay type: in vivo; settings: for % visual injury, Obs: STEME
# spring barley (HORVS) [7] = settings: Hordeum vulgare (spring barley), in vivo
# winter wheat (TRZAW) [8] = settings: in vivo
# common rice (ORYSA) [9] = settings: in vivo
# [10] = test system: Canadian thistle (CIRAR, Cirsium arvense); assay: Greenhouse postemergence trial, % visual injury; settings: for % visual injury, Obs: CIRAR;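 for all read-outs here: plants sprayed at second to third true leaf stage, injury scored visually 20-22 d later against solvent-blank sprayed controls, 0 meaning no injury and 100 complete kill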
# [11] = test system: spring rape (Brassica napus, BRSNN); assay: Greenhouse postemergence trial, % visual injury; settings: Brassica napus, post-emergence
# [12] = test system: poinsettia (Euphorbia heterophylla, EPHHL); assay: Greenhouse postemergence trial, % visual injury
# [13] = test system: kochia (KCHSC, Kochia scoparia); assay: Greenhouse postemergence trial, % visual injury; assay type: in vivo
# Procedure: Following the protocol in Example 1, compound 1 and compound 2 were combined with 2,4 D EHE (EC) and applied to kochia (KCHSC, Kochia scoparia) and the phytotoxicity of the herbicidal compositions was measured.
# Following the protocol in Example 1, compound 1 (EC) and Compound 2 (SC) were combined with diflufenzopyr and applied to kochia (Kochia scoparia, KCHSC) and the phytotoxicity of the herbicidal composition was measured.
# [14] = test system: grain sorghum (Sorghum vulgare, SORVU); assay: Greenhouse postemergence trial, % visual injury; assay type: in vivo; settings: SORVU, 400 g ae/ha
# [15] = test system: ivyleaf morningglory (Ipomoea hederacea, IPOHE); assay: Greenhouse postemergence trial, % visual injury
# spring barley (HORVS) [16] = assay: Greenhouse postemergence trial, crop phytotoxicity (% visual injury); settings: crop, 20-22 d
# winter wheat (TRZAW) [17] = assay: as above; settings: for % visual injury, Obs: TRZAW; for % visual injury Obs: crop, 20-22 d
# maize (ZEAMX) = assay: as above; settings: for % visual injury, Obs: ZEAMX
# common rice (ORYSA) [18] = assay: as above; settings: for % visual injury, Obs: ORYSA
# [19] = test system: common lambsquarters (CHEAL, Chenopodium album L.); assay: Greenhouse postemergence trial, % visual injury; assay type: in vivo
# [20] = test system: large crabgrass (Digitaria sanguinalis, DIGSA); assay: Greenhouse postemergence trial, % visual injury; assay type: in vivo; settings: Digitaria sanguinalis, post-emergence, DIGSA, read-out: % visual injury, Obs
# [21] = test system: barnyardgrass (Echinochloa crus-galli, ECHCG); assay: Greenhouse postemergence trial, % visual injury; assay type: in vivo; settings: ECHCG, 280 g ae/ha
# [22] = test system: wild pansy (Viola tricolor, VIOTR); assay: Greenhouse postemergence trial, % visual injury; settings: VIOTR, 280 g ae/ha
# [23] = Cirsium arvense, post-emergence, read-out: % visual injury Obs
structure (smiles),measurement,setting,value
"CC(Oc1ccc(Cl)cc1Cl)C(=O)O (centres unmarked) [Dichlorprop-P, dichlorprop-P, reference compound]",pest or weed control at 280 g/ha,"[1]; Amaranthus retroflexus, post-emergence, 280 g ae/ha alone, 20-22 d, read-out: % visual injury Obs",40%
same,% visual injury Obs,[2]; 280 g ae/ha alone,83%
same,% visual injury (Obs),[3]; dichlorprop-P 400 g ae/ha,60%
same,% visual injury (Obs),[4]; dichlorprop-P 400 g ae/ha,0%
same,% visual injury (Obs),[5],85%
same,% visual injury (Obs),[6]; dichlorprop-P 400 g ae/ha,20%
same,% visual injury Obs,spring barley (HORVS) [7],0%
same,% visual injury Obs,winter wheat (TRZAW) [8]; Triticum aestivum (winter wheat),0%
same,% visual injury (Obs),winter wheat (TRZAW) [8]; winter wheat (Triticum aestivum),0%
same,% visual injury (Obs),common rice (ORYSA) [9],0%
same,pest or weed control at 400 g/ha,"[10]; Cirsium arvense, post-emergence, read-out: % visual injury (Obs)",70%
same,pest or weed control at 280 g/ha,[10]; [23],75%
same,plant injury at 400 g/ha,[11]; read-out: % visual injury (Obs),80%
same,% visual injury (Obs),[12]; dichlorprop-P 400 g ae/ha,60%
"Cc1cc(Cl)ccc1OC(C)C(=O)O (centres unmarked) [Mecoprop-P, mecoprop-P]",pest or weed control at 400 g/ha,"[1]; Amaranthus retroflexus, post-emergence, 400 g ae/ha alone, 20-22 d, read-out: % visual injury Obs",58%
same,% visual injury Obs,[2]; 400 g ae/ha alone,88%
same,pest or weed control at 400 g/ha,"[13]; Bassia scoparia, post-emergence, KCHSC, 400 g ae/ha, read-out: % visual injury, Obs",10%
same,pest or weed control at 400 g/ha,"[3]; Abutilon theophrasti, post-emergence, ABUTH, 400 g ae/ha, read-out: % visual injury, Obs",30%
same,"% visual injury, Obs",[14],0%
same,"% visual injury, Obs",[6]; 400 g ae/ha,0%
same,"% visual injury, Obs",[10]; 400 g ae/ha,10%
same,plant injury at 400 g/ha,"[11]; read-out: % visual injury, Obs",30%
same,pest or weed control at 400 g/ha,"[12]; Euphorbia heterophylla, post-emergence, read-out: % visual injury, Obs, EPHHL, 400 g ae/ha",30%
same,pest or weed control at 400 g/ha,"[15]; Ipomoea, post-emergence, read-out: % visual injury, Obs, IPOHE, 400 g ae/ha",30%
same,% visual injury Obs,spring barley (HORVS) [16]; 400 g ae/ha alone,0%
same,"% visual injury, Obs",winter wheat (TRZAW) [17]; 400 g ae/ha,0%
same,% visual injury Obs,winter wheat (TRZAW) [17]; 400 g ae/ha alone,0%
same,"% visual injury, Obs",maize (ZEAMX); 400 g ae/ha,0%
same,"% visual injury, Obs",common rice (ORYSA) [18]; 400 g ae/ha,0%
O=C(O)c1nc(Cl)ccc1Cl [clopyralid],"% visual injury, Obs","[1]; AMARE, 100 g ae/ha",28%
same,pest or weed control at 100 g/ha,"[1]; Amaranthus retroflexus, post-emergence, 100 g ae/ha alone, 20-22 d, read-out: % visual injury Obs",3%
same,% visual injury Obs,[2]; 100 g ae/ha alone,0%
same,pest or weed control at 100 g/ha,"[19]; Chenopodium album, post-emergence, 100 g ae/ha alone, 20-22 d, read-out: % visual injury Obs",0%
same,% visual injury (Obs),[19]; clopyralid 120 g ae/ha,10%
same,% visual injury (Obs),[13]; clopyralid 120 g ae/ha,10%
same,% visual injury (Obs),[6]; clopyralid 120 g ae/ha,0%
same,pest or weed control at 100 g/ha,[20]; 100 g ae/ha,0%
same,pest or weed control at 100 g/ha,[10]; [23],85%
same,plant injury at 100 g/ha,"[11]; read-out: % visual injury, Obs",43%
same,pest or weed control at 100 g/ha,"[12]; Euphorbia heterophylla, post-emergence, read-out: % visual injury, Obs, EPHHL, 100 g ae/ha",5%
same,pest or weed control at 100 g/ha,"[15]; Ipomoea, post-emergence, read-out: % visual injury, Obs, IPOHE, 100 g ae/ha",35%
same,% visual injury (Obs),[15]; clopyralid 120 g ae/ha,30%
same,% visual injury Obs,spring barley (HORVS) [16]; 100 g ae/ha alone,5%
same,"% visual injury, Obs",winter wheat (TRZAW) [17]; 100 g ae/ha,0%
same,% visual injury (Obs),winter wheat (TRZAW) [17]; clopyralid 120 g ae/ha,0%
same,% visual injury Obs,winter wheat (TRZAW) [17]; 100 g ae/ha alone,3%
same,"% visual injury, Obs",maize (ZEAMX); 100 g ae/ha,0%
same,% visual injury (Obs),maize (ZEAMX); clopyralid 120 g ae/ha,0%
same,"% visual injury, Obs",common rice (ORYSA) [18]; 100 g ae/ha,0%
same,% visual injury (Obs),common rice (ORYSA) [18]; clopyralid 120 g ae/ha,0%
"CCCCOCCOC(=O)COc1nc(Cl)c(Cl)cc1Cl [triclopyr-butotyl, reference compound]",pest or weed control at 280 g/ha,"[13]; Bassia scoparia, post-emergence, KCHSC, 280 g ae/ha, read-out: % visual injury, Obs",50%
same,pest or weed control at 280 g/ha,"[3]; Abutilon theophrasti, post-emergence, ABUTH, 280 g ae/ha, read-out: % visual injury, Obs",20%
same,"% visual injury, Obs","[4]; CYPES, 280 g ae/ha",10%
same,"% visual injury, Obs",[6]; 280 g ae/ha,20%
same,pest or weed control at 280 g/ha,[20]; 280 g ae/ha,0%
same,"% visual injury, Obs",[21],0%
same,"% visual injury, Obs",[10]; 280 g ae/ha,85%
same,plant injury at 280 g/ha,"[11]; read-out: % visual injury, Obs",80%
same,"% visual injury, Obs",[22],65%
same,"% visual injury, Obs",winter wheat (TRZAW) [17]; 280 g ae/ha,15%
same,"% visual injury, Obs",maize (ZEAMX); 280 g ae/ha,10%
same,"% visual injury, Obs",common rice (ORYSA) [18]; 280 g ae/ha,0%

# — patent US9521847B2, “Synergistic weed control from applications of pyridine carboxylic acid herbicides and synthetic auxin herbicides and/or auxin transport inhibitors” (Dow AgroSciences LLC, priority 2014, dated 2016)
